# Source: ChEMBL document CHEMBL1138457, “Design and synthesis of an orally bioavailable and selective peptide epoxyketone proteasome inhibitor (PR-047)” (J Med Chem, 2009)
# Test system: not listed separately
# Assay: Inhibition of chymotrypsin-like activity of human 20S proteasome by spectrofluorimetry
# Conditions: not given
row,SMILES,IC50 [nM]
1,COCC[C@H](NC(=O)c1cc(CN2CCOCC2)on1)C(=O)N[C@@H](Cc1ccccc1)C(=O)N[C@@H](CC(C)C)C(=O)[C@@]1(C)CO1,19
2,Cc1cc(C(=O)N[C@@H](Cc2cccnc2)C(=O)N[C@@H](Cc2ccccc2)C(=O)N[C@@H](CC(C)C)C(=O)[C@@]2(C)CO2)no1,1.6
3,CC(C)C[C@H](NC(=O)c1cc[nH]n1)C(=O)N[C@@H](Cc1ccccc1)C(=O)N[C@@H](CC(C)C)C(=O)[C@@]1(C)CO1,36
4,CC(C)C[C@H](NC(=O)c1cc(C(C)C)on1)C(=O)N[C@@H](Cc1ccccc1)C(=O)N[C@@H](CC(C)C)C(=O)[C@@]1(C)CO1,6.3
5,CC(C)C[C@H](NC(=O)c1cnco1)C(=O)N[C@@H](Cc1ccccc1)C(=O)N[C@@H](CC(C)C)C(=O)[C@@]1(C)CO1,27
6,Cc1cc(NC(=O)N[C@@H](CC(C)C)C(=O)N[C@@H](Cc2ccccc2)C(=O)N[C@@H](CC(C)C)C(=O)[C@@]2(C)CO2)no1,13
7,CC(C)C[C@H](NC(=O)[C@H]1CCCO1)C(=O)N[C@@H](Cc1ccccc1)C(=O)N[C@@H](CC(C)C)C(=O)[C@@]1(C)CO1,34
8,COCC[C@H](NC(=O)c1cc(C)on1)C(=O)N[C@@H](Cc1ccccc1)C(=O)N[C@@H](CC(C)C)C(=O)[C@@]1(C)CO1,26
9,CC(C)C[C@H](NC(=O)c1cnccn1)C(=O)N[C@@H](Cc1ccccc1)C(=O)N[C@@H](CC(C)C)C(=O)[C@@]1(C)CO1,752

# Second part, the molecule after the results:
row,IC50 [nM],SMILES
1,13,Cc1cc(C(=O)N[C@@H](Cc2ccccn2)C(=O)N[C@@H](Cc2ccccc2)C(=O)N[C@@H](CC(C)C)C(=O)[C@@]2(C)CO2)no1
2,12,CC(C)C[C@H](NC(=O)c1ccnnc1)C(=O)N[C@@H](Cc1ccccc1)C(=O)N[C@@H](CC(C)C)C(=O)[C@@]1(C)CO1
3,76,CC(C)C[C@H](NC(=O)c1ccn(C)n1)C(=O)N[C@@H](Cc1ccccc1)C(=O)N[C@@H](CC(C)C)C(=O)[C@@]1(C)CO1
4,40,COC[C@H](NC(=O)c1cc(C)on1)C(=O)N[C@@H](CC#N)C(=O)N[C@@H](CC(C)C)C(=O)[C@@]1(C)CO1
5,107,CC(C)C[C@H](NC(=O)c1ncc[nH]1)C(=O)N[C@@H](Cc1ccccc1)C(=O)N[C@@H](CC(C)C)C(=O)[C@@]1(C)CO1

# Test system: not listed separately
# Assay: Inhibition of chymotrypsin-like activity of 20S proteasome in human MOLT4 cells after 1 hr by […]
# Type: cell-based
# Conditions: MOLT-4, 1 h
row,SMILES,IC50 [nM]
1,COCC[C@H](NC(=O)c1cc(CN2CCOCC2)on1)C(=O)N[C@@H](Cc1ccccc1)C(=O)N[C@@H](CC(C)C)C(=O)[C@@]1(C)CO1,42
2,Cc1cc(C(=O)N[C@@H](Cc2ccccn2)C(=O)N[C@@H](Cc2ccccc2)C(=O)N[C@@H](CC(C)C)C(=O)[C@@]2(C)CO2)no1,78
3,CC(C)C[C@H](NC(=O)c1ccnnc1)C(=O)N[C@@H](Cc1ccccc1)C(=O)N[C@@H](CC(C)C)C(=O)[C@@]1(C)CO1,50
4,Cc1cc(C(=O)N[C@@H](Cc2cccnc2)C(=O)N[C@@H](Cc2ccccc2)C(=O)N[C@@H](CC(C)C)C(=O)[C@@]2(C)CO2)no1,27
5,CC(C)C[C@H](NC(=O)c1cc[nH]n1)C(=O)N[C@@H](Cc1ccccc1)C(=O)N[C@@H](CC(C)C)C(=O)[C@@]1(C)CO1,188
6,CC(C)C[C@H](NC(=O)c1cc(C(C)C)on1)C(=O)N[C@@H](Cc1ccccc1)C(=O)N[C@@H](CC(C)C)C(=O)[C@@]1(C)CO1,17
7,CC(C)C[C@H](NC(=O)c1cnco1)C(=O)N[C@@H](Cc1ccccc1)C(=O)N[C@@H](CC(C)C)C(=O)[C@@]1(C)CO1,84
8,Cc1cc(NC(=O)N[C@@H](CC(C)C)C(=O)N[C@@H](Cc2ccccc2)C(=O)N[C@@H](CC(C)C)C(=O)[C@@]2(C)CO2)no1,47
9,CC(C)C[C@H](NC(=O)c1ccn(C)n1)C(=O)N[C@@H](Cc1ccccc1)C(=O)N[C@@H](CC(C)C)C(=O)[C@@]1(C)CO1,290
10,CC(C)C[C@H](NC(=O)[C@H]1CCCO1)C(=O)N[C@@H](Cc1ccccc1)C(=O)N[C@@H](CC(C)C)C(=O)[C@@]1(C)CO1,154
11,COC[C@H](NC(=O)c1cc(C)on1)C(=O)N[C@@H](CC#N)C(=O)N[C@@H](CC(C)C)C(=O)[C@@]1(C)CO1,91
12,COCC[C@H](NC(=O)c1cc(C)on1)C(=O)N[C@@H](Cc1ccccc1)C(=O)N[C@@H](CC(C)C)C(=O)[C@@]1(C)CO1,69
13,CC(C)C[C@H](NC(=O)c1cnccn1)C(=O)N[C@@H](Cc1ccccc1)C(=O)N[C@@H](CC(C)C)C(=O)[C@@]1(C)CO1,> 1000
14,CC(C)C[C@H](NC(=O)c1ncc[nH]1)C(=O)N[C@@H](Cc1ccccc1)C(=O)N[C@@H](CC(C)C)C(=O)[C@@]1(C)CO1,271

# Test system: Mus musculus
# Assay: Inhibition of chymotrypsin-like activity of 20S proteasome in BALB/c mouse adrenal gland 40 mg/kg, po after 1 hr
# Type: functional
# Set-up: scale not given: the % may be the effect or the level left
# Conditions: not given
row,SMILES,Activity [%]
1,COCC[C@H](NC(=O)c1cc(CN2CCOCC2)on1)C(=O)N[C@@H](Cc1ccccc1)C(=O)N[C@@H](CC(C)C)C(=O)[C@@]1(C)CO1,81
2,Cc1cc(C(=O)N[C@@H](Cc2ccccn2)C(=O)N[C@@H](Cc2ccccc2)C(=O)N[C@@H](CC(C)C)C(=O)[C@@]2(C)CO2)no1,23
3,Cc1cc(C(=O)N[C@@H](Cc2cccnc2)C(=O)N[C@@H](Cc2ccccc2)C(=O)N[C@@H](CC(C)C)C(=O)[C@@]2(C)CO2)no1,70
4,COCC[C@H](NC(=O)c1cc(C)on1)C(=O)N[C@@H](Cc1ccccc1)C(=O)N[C@@H](CC(C)C)C(=O)[C@@]1(C)CO1,47

# Test system: not listed separately
# Assay: Cytotoxicity against human MESSA cells assessed as cell viability after 72 hrs by CellTiter-Glo luminescent assay
# Type: functional, cell-based
# Conditions: MES-SA
row,SMILES,IC50 [nM]
1,COCC[C@H](NC(=O)c1cc(CN2CCOCC2)on1)C(=O)N[C@@H](Cc1ccccc1)C(=O)N[C@@H](CC(C)C)C(=O)[C@@]1(C)CO1,24
2,Cc1cc(C(=O)N[C@@H](Cc2ccccn2)C(=O)N[C@@H](Cc2ccccc2)C(=O)N[C@@H](CC(C)C)C(=O)[C@@]2(C)CO2)no1,45
3,CC(C)C[C@H](NC(=O)c1ccnnc1)C(=O)N[C@@H](Cc1ccccc1)C(=O)N[C@@H](CC(C)C)C(=O)[C@@]1(C)CO1,18
4,Cc1cc(C(=O)N[C@@H](Cc2cccnc2)C(=O)N[C@@H](Cc2ccccc2)C(=O)N[C@@H](CC(C)C)C(=O)[C@@]2(C)CO2)no1,39
5,CC(C)C[C@H](NC(=O)c1cc[nH]n1)C(=O)N[C@@H](Cc1ccccc1)C(=O)N[C@@H](CC(C)C)C(=O)[C@@]1(C)CO1,109
6,CC(C)C[C@H](NC(=O)c1cc(C(C)C)on1)C(=O)N[C@@H](Cc1ccccc1)C(=O)N[C@@H](CC(C)C)C(=O)[C@@]1(C)CO1,63
7,CC(C)C[C@H](NC(=O)c1cnco1)C(=O)N[C@@H](Cc1ccccc1)C(=O)N[C@@H](CC(C)C)C(=O)[C@@]1(C)CO1,159
8,Cc1cc(NC(=O)N[C@@H](CC(C)C)C(=O)N[C@@H](Cc2ccccc2)C(=O)N[C@@H](CC(C)C)C(=O)[C@@]2(C)CO2)no1,182
9,CC(C)C[C@H](NC(=O)c1ccn(C)n1)C(=O)N[C@@H](Cc1ccccc1)C(=O)N[C@@H](CC(C)C)C(=O)[C@@]1(C)CO1,137
10,CC(C)C[C@H](NC(=O)[C@H]1CCCO1)C(=O)N[C@@H](Cc1ccccc1)C(=O)N[C@@H](CC(C)C)C(=O)[C@@]1(C)CO1,69
11,COC[C@H](NC(=O)c1cc(C)on1)C(=O)N[C@@H](CC#N)C(=O)N[C@@H](CC(C)C)C(=O)[C@@]1(C)CO1,29
12,COCC[C@H](NC(=O)c1cc(C)on1)C(=O)N[C@@H](Cc1ccccc1)C(=O)N[C@@H](CC(C)C)C(=O)[C@@]1(C)CO1,164
13,CC(C)C[C@H](NC(=O)c1cnccn1)C(=O)N[C@@H](Cc1ccccc1)C(=O)N[C@@H](CC(C)C)C(=O)[C@@]1(C)CO1,> 1000
14,CC(C)C[C@H](NC(=O)c1ncc[nH]1)C(=O)N[C@@H](Cc1ccccc1)C(=O)N[C@@H](CC(C)C)C(=O)[C@@]1(C)CO1,136

# Test system: not listed separately
# Assay: Cytotoxicity against multidrug resistance transporter expressing doxorubicin resistant human MESSA cells assessed as cell viability after 72 hrs by CellTiter-Glo luminescent assay
# Type: functional, cell-based
# Conditions: MES-SA
row,SMILES,IC50 [nM]
1,COCC[C@H](NC(=O)c1cc(CN2CCOCC2)on1)C(=O)N[C@@H](Cc1ccccc1)C(=O)N[C@@H](CC(C)C)C(=O)[C@@]1(C)CO1,1140
2,Cc1cc(C(=O)N[C@@H](Cc2ccccn2)C(=O)N[C@@H](Cc2ccccc2)C(=O)N[C@@H](CC(C)C)C(=O)[C@@]2(C)CO2)no1,219
3,CC(C)C[C@H](NC(=O)c1ccnnc1)C(=O)N[C@@H](Cc1ccccc1)C(=O)N[C@@H](CC(C)C)C(=O)[C@@]1(C)CO1,> 1000
4,Cc1cc(C(=O)N[C@@H](Cc2cccnc2)C(=O)N[C@@H](Cc2ccccc2)C(=O)N[C@@H](CC(C)C)C(=O)[C@@]2(C)CO2)no1,543
5,CC(C)C[C@H](NC(=O)c1cc[nH]n1)C(=O)N[C@@H](Cc1ccccc1)C(=O)N[C@@H](CC(C)C)C(=O)[C@@]1(C)CO1,> 1000
6,CC(C)C[C@H](NC(=O)c1cc(C(C)C)on1)C(=O)N[C@@H](Cc1ccccc1)C(=O)N[C@@H](CC(C)C)C(=O)[C@@]1(C)CO1,30
7,CC(C)C[C@H](NC(=O)c1cnco1)C(=O)N[C@@H](Cc1ccccc1)C(=O)N[C@@H](CC(C)C)C(=O)[C@@]1(C)CO1,505
8,Cc1cc(NC(=O)N[C@@H](CC(C)C)C(=O)N[C@@H](Cc2ccccc2)C(=O)N[C@@H](CC(C)C)C(=O)[C@@]2(C)CO2)no1,> 1000
9,CC(C)C[C@H](NC(=O)c1ccn(C)n1)C(=O)N[C@@H](Cc1ccccc1)C(=O)N[C@@H](CC(C)C)C(=O)[C@@]1(C)CO1,205
10,CC(C)C[C@H](NC(=O)[C@H]1CCCO1)C(=O)N[C@@H](Cc1ccccc1)C(=O)N[C@@H](CC(C)C)C(=O)[C@@]1(C)CO1,110
11,COC[C@H](NC(=O)c1cc(C)on1)C(=O)N[C@@H](CC#N)C(=O)N[C@@H](CC(C)C)C(=O)[C@@]1(C)CO1,941
12,COCC[C@H](NC(=O)c1cc(C)on1)C(=O)N[C@@H](Cc1ccccc1)C(=O)N[C@@H](CC(C)C)C(=O)[C@@]1(C)CO1,286
13,CC(C)C[C@H](NC(=O)c1cnccn1)C(=O)N[C@@H](Cc1ccccc1)C(=O)N[C@@H](CC(C)C)C(=O)[C@@]1(C)CO1,> 1000
14,CC(C)C[C@H](NC(=O)c1ncc[nH]1)C(=O)N[C@@H](Cc1ccccc1)C(=O)N[C@@H](CC(C)C)C(=O)[C@@]1(C)CO1,> 1000

# Test system: not listed separately
# Assay: Chemical stability in simulated intestinal fluid assessed as compound remaining at 4 uM after 15 mins
# Type: physicochemical
# Conditions: read-out: Stability
row,SMILES,"remaining at 0.25 h, 4 µM [%]"
1,COCC[C@H](NC(=O)c1cc(CN2CCOCC2)on1)C(=O)N[C@@H](Cc1ccccc1)C(=O)N[C@@H](CC(C)C)C(=O)[C@@]1(C)CO1,90
2,Cc1cc(C(=O)N[C@@H](Cc2cccnc2)C(=O)N[C@@H](Cc2ccccc2)C(=O)N[C@@H](CC(C)C)C(=O)[C@@]2(C)CO2)no1,90
3,COCC[C@H](NC(=O)c1cc(C)on1)C(=O)N[C@@H](Cc1ccccc1)C(=O)N[C@@H](CC(C)C)C(=O)[C@@]1(C)CO1,80

# The next lines start with the values.
row,"remaining at 0.25 h, 4 µM [%]",SMILES
1,20,Cc1cc(C(=O)N[C@@H](Cc2ccccn2)C(=O)N[C@@H](Cc2ccccc2)C(=O)N[C@@H](CC(C)C)C(=O)[C@@]2(C)CO2)no1
2,100,COC[C@H](NC(=O)c1cc(C)on1)C(=O)N[C@@H](CC#N)C(=O)N[C@@H](CC(C)C)C(=O)[C@@]1(C)CO1

# Test system: not listed separately
# Assay: Metabolic stability in mouse liver microsomes assessed as extraction ratio at 1 uM
# Type: ADME, Microsome
# Conditions: not given
row,SMILES,hepatic extraction ratio at 1 µM [dimensionless ratio]
1,COC[C@H](NC(=O)c1cc(C)on1)C(=O)N[C@@H](CC#N)C(=O)N[C@@H](CC(C)C)C(=O)[C@@]1(C)CO1,0.28

# Test system: Mus musculus
# Assay: Inhibition of chymotrypsin-like activity of 20S proteasome in BALB/c mouse adrenal gland at 20 mg/kg, po after 1 hr
# Type: functional
# Set-up: scale not given: the % may be the effect or the level left
# Conditions: not given
row,SMILES,Activity [%]
1,COC[C@H](NC(=O)c1cc(C)on1)C(=O)N[C@@H](CC#N)C(=O)N[C@@H](CC(C)C)C(=O)[C@@]1(C)CO1,40
